Assay results reported in ChEMBL document CHEMBL4354830, “Discovery of Benzo[cd]indol-2(1H)-ones and Pyrrolo[4,3,2-de]quinolin-2(1H)-ones as Bromodomain and Extra-Terminal Domain (BET) Inhibitors with Selectivity for the First Bromodomain with Potential High Efficiency against Acute Gouty Arthritis” (J Med Chem, 2019).

Legend:
[1] = target: T1, Bromodomain-containing protein 4 (Homo sapiens, UniProt O60885); assay: Binding affinity to recombinant human N-terminal His-tagged BRD4 BD1 (44 to 170 residues) expressed in Escherichia coli assessed as change in melting temperature at 10 uM by SYPRO Orange based differential scanning fluorimetry
[2] = target: T2, Bromodomain-containing protein 9 (Homo sapiens) (UniProt Q9H8M2); assay: Binding affinity to BRD9 BD1 (unknown origin) assessed as change in melting temperature at 10 uM by SYPRO Orange based differential scanning fluorimetry
T2 sequence (whole entry): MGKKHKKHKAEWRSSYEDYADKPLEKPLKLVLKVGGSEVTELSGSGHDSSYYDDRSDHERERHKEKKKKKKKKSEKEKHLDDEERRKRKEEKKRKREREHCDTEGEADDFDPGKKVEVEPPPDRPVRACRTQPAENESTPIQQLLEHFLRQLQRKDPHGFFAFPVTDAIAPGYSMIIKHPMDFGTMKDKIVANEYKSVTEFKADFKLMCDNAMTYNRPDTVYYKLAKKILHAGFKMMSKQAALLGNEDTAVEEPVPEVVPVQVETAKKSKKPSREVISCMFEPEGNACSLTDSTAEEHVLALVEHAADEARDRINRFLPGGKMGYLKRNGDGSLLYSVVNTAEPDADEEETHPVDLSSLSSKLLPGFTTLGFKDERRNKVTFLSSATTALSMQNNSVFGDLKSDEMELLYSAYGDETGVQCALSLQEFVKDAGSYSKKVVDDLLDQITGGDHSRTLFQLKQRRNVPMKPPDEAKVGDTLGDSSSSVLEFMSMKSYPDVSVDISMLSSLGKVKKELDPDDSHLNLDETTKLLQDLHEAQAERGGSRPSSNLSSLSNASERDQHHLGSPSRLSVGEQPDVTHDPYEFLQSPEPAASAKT

[3] = target: Chromatin remodeling regulator CECR2 (Homo sapiens) (UniProt Q9BXF3); assay: Binding affinity to CECR2 (unknown origin) assessed as change in melting temperature at 10 uM by SYPRO Orange based differential scanning fluorimetry
Sequence of Chromatin remodeling regulator CECR2 (Homo sapiens) (Q9BXF3 whole entry, looked up): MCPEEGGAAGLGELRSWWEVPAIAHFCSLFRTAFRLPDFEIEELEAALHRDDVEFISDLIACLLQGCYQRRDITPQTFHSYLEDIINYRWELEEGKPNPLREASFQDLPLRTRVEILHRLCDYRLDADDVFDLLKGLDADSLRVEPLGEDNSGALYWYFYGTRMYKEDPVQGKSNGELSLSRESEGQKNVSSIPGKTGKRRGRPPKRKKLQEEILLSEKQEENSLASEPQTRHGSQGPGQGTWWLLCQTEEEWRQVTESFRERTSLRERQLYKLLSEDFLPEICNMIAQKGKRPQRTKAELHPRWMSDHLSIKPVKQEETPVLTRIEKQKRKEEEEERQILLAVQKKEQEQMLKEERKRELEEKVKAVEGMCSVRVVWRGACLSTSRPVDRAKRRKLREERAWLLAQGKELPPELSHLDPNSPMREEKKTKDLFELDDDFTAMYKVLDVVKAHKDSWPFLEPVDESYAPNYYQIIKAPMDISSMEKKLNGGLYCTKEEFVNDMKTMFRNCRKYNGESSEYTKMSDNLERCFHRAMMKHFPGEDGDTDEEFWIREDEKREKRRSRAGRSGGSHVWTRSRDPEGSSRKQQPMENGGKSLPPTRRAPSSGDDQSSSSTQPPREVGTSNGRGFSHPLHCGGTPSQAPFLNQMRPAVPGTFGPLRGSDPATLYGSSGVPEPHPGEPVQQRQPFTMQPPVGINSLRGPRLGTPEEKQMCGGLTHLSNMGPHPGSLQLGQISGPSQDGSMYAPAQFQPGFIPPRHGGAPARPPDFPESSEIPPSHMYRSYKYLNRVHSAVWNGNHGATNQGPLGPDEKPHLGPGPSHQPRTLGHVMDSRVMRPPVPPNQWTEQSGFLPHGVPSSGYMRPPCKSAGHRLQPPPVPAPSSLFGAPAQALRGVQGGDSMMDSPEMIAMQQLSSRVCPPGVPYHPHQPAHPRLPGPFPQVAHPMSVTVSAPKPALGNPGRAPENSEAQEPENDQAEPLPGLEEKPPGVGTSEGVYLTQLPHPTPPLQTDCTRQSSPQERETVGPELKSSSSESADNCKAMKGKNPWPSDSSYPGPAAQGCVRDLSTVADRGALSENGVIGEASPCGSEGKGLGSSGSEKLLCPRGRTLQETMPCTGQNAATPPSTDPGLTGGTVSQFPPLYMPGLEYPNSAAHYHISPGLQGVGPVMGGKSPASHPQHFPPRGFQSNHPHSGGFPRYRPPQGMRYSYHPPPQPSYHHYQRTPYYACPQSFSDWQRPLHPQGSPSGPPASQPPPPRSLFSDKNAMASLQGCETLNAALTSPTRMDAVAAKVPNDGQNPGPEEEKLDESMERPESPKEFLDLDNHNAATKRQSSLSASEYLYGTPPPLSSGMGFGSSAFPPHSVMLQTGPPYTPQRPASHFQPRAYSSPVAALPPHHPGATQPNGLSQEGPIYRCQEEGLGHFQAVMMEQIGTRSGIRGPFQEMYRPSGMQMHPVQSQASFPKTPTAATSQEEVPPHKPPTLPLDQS

[4] = target: CREB-binding protein (Homo sapiens) (UniProt Q92793); assay: Binding affinity to CREBBP (unknown origin) assessed as change in melting temperature at 10 uM by SYPRO Orange based differential scanning fluorimetry
Sequence of CREB-binding protein (Homo sapiens) (Q92793 2-2442 limits assumed): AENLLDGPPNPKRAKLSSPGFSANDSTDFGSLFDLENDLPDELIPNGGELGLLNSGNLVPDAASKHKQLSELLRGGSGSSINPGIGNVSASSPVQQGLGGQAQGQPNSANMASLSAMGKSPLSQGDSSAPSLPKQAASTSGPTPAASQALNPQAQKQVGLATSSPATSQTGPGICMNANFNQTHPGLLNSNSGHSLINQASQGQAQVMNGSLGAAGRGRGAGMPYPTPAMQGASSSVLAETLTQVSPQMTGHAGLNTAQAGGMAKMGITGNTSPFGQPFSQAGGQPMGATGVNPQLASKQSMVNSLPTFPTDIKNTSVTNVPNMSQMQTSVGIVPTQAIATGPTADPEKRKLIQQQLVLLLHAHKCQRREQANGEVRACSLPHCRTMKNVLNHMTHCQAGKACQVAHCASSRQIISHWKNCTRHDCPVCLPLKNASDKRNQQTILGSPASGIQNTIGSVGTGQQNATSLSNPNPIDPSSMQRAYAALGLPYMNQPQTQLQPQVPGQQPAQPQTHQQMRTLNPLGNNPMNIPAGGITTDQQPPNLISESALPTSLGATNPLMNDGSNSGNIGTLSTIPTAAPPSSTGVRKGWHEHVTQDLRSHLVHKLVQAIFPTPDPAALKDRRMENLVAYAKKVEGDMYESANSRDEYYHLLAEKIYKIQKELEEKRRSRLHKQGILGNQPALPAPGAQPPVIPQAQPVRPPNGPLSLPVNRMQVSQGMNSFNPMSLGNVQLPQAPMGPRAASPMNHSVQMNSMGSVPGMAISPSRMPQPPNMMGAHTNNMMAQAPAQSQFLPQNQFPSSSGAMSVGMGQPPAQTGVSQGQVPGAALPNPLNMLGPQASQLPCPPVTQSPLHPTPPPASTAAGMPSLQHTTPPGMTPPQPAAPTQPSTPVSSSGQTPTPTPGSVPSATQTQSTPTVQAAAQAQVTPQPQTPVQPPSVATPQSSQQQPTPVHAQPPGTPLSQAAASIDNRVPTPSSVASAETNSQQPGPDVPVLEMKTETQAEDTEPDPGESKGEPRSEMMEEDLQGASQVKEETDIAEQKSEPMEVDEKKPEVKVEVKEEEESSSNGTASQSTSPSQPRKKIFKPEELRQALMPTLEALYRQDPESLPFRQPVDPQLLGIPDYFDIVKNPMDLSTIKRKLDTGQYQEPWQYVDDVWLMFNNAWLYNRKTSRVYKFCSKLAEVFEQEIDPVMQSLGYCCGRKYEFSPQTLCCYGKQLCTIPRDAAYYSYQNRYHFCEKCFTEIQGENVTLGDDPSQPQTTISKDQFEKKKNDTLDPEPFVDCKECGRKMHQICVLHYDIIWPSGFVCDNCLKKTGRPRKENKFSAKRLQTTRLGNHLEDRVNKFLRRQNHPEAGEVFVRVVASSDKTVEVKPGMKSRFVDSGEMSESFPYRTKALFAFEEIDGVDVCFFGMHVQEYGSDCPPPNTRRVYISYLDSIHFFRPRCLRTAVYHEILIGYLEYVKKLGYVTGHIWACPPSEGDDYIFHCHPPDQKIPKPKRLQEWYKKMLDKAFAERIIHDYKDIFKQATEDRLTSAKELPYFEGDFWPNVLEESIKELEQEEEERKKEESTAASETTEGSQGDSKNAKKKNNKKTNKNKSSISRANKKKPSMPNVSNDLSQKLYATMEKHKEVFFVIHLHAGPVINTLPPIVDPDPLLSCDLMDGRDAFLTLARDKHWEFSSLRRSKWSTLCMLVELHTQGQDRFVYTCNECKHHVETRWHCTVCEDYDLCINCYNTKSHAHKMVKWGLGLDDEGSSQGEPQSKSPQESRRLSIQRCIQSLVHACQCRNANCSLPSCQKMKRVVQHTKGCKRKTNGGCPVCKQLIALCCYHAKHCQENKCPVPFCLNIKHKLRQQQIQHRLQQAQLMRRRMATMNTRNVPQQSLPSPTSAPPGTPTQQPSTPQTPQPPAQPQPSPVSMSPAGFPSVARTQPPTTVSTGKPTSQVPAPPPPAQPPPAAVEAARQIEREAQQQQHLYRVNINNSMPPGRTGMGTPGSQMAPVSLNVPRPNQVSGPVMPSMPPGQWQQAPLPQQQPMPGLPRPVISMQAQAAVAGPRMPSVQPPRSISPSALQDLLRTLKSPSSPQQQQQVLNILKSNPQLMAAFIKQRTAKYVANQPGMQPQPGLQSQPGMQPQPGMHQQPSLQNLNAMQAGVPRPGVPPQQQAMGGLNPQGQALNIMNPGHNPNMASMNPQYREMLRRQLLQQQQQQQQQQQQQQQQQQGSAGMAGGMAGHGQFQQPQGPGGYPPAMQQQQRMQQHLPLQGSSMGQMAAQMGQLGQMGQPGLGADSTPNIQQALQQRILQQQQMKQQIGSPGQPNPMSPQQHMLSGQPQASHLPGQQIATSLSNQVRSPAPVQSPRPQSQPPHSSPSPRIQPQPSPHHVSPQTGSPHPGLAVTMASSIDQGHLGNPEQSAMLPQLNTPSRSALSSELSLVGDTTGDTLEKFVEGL

[5] = system: RAW264.7; assay: Inhibition of LPS-induced NO overproduction in mouse RAW264.7 cells at 1 uM incubated for 2 hrs followed by LPS stimulation and measured after 22 hrs by Griess reagent based assay relative to control; assay type: functional; conditions: Mus musculus, RAW264.7
[6] = target: T1, Bromodomain-containing protein 4; assay: Displacement of tetra-acetylated histone H4 peptide (1-21) from recombinant human N-terminal His-tagged BRD4 BD2 (349 to 460 residues) expressed in Escherichia coli incubated for 30 mins followed by further incubation with tetra-acetylated histone H4 peptide (1-21) for 30 mins by Alphascreen assay
[7] = target: T1, Bromodomain-containing protein 4; assay: (§1) Displacement of tetra-acetylated histone H4 peptide (1-21) from recombinant human N-terminal His-tagged BRD4 BD1 (44 to 170 residues) expressed in Escherichia coli incubated for 30 mins followed by further incubation with tetra-acetylated histone H4 peptide (1-21) for 30 mins by Alphascreen assay
[8] = Permeability of compound at 10 uM by PAMPA assay; assay type: ADME; conditions: read-out: permeability
[9] = target: T1, Bromodomain-containing protein 4; assay: as §1, with “coli assessed as protein activity at 2 uM” for “coli”

| ΔTm [1] [°C] | ΔTm [2] [°C] | ΔTm [3] [°C] | ΔTm [4] [°C] | Activity [9] [%] | Structure (SMILES) | also measured |
| --- | --- | --- | --- | --- | --- | --- |
| 2.17 | 4.1 | 2.17 | 0.93 | – | CN1C(=O)c2cccc3c(NC(=O)c4ccccc4)ccc1c23 | – |
| – | – | – | – | – | COc1ccccc1S(=O)(=O)Nc1ccc2c3c(cc(-c4ccc(C)o4)cc13)C(=O)N2C | inhibition at 1 µM [5]: 58.5%; IC50 [6]: 47000 nM; IC50 [7]: 54.8 nM; Papp at 10 µM [8]: 0.006 ×10⁻⁶ cm/s |
| 1.06 | – | – | – | 90.4 | COc1ccccc1S(=O)(=O)N(C)c1ccc2c3c(cccc13)C(=O)N2C | – |
| – | – | – | – | 64.9 | COc1ccc(Cl)cc1S(=O)(=O)Nc1ccc2c3c(cc(-c4cnn(C5CC5)c4)cc13)C(=O)N2C | – |
| 2.7 | -0.9 | 1.92 | 1.6 | – | CN1C(=O)c2cccc3c(NCc4ccccc4)ccc1c23 | – |
| 5.72 | 1.93 | -0.31 | 1.51 | – | CN1C(=O)c2cccc3c(NS(=O)(=O)c4ccccc4)ccc1c23 | IC50 [6]: 2620 nM; IC50 [7]: 709 nM |
| 3.15 | 4.33 | 0.13 | 0.55 | – | CC(Nc1ccc2c3c(cccc13)C(=O)N2C)c1ccccc1 (stereo unspecified) | – |
| 2.75 | – | – | – | 91.1 | CN1C(=O)c2cccc3c(NS(=O)(=O)c4c(Cl)cccc4Cl)ccc1c23 | – |
| 2.31 | – | – | – | 87.4 | CN1C(=O)c2ccnc3c(NS(=O)(=O)c4ccc(Cl)cc4F)ccc1c23 | – |
| 2.19 | 0.47 | -0.03 | 0.53 | – | CN1C(=O)c2cccc3c(S(=O)(=O)Nc4ccccc4)ccc1c23 | – |
| – | – | – | – | 56.6 | CN1C(=O)c2cc(-c3ccoc3)cc3c(NS(=O)(=O)c4ccc(Cl)cc4)ccc1c23 | – |
| – | – | – | – | 65.2 | CN1C(=O)c2cc(-c3cnn(C4CC4)c3)cc3c(NS(=O)(=O)c4ccc(Cl)cc4F)ccc1c23 | – |
| – | – | – | – | 61.8 | CN1C(=O)c2cc(-c3cnn(C4CC4)c3)cc3c(NS(=O)(=O)c4ccc(Cl)cc4Cl)ccc1c23 | – |
